Results on five molecules are retold here after ChEMBL document CHEMBL1125723 (J Med Chem, 1991).

SMILES strings stand for the structures.

Assay [1] deals with L1210. The experiment in a line: Ability to inhibit L1210 murine leukemia tumor cell growth in culture after 48 hr of its exposure. The following applies: Mus musculus, L1210, 48 h. The format is functional, cell-based.
Assay [2] in a line: Ability to inhibit WI-L2 […] leukemia tumor cell growth in culture after 48 hr of its exposure. The class given is functional, cell-based. As to conditions: Homo sapiens, WIL2, 48 h.
Assay [3] addresses T1, Dihydrofolate reductase (Homo sapiens, UniProt P00374).
T1 sequence (P00374 whole entry): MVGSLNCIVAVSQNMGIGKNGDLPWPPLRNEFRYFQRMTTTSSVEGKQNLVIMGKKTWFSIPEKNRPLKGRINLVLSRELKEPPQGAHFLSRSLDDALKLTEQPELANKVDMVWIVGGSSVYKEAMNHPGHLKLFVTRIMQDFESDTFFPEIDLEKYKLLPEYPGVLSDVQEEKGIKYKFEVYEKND
Description: Ability to inhibit purified Dihydrofolate reductase from human leukemic lymphoblasts was determined spectrophotometrically at 340 nM.

For assay [4], the system named is L1210. The experiment in a line: Ability to inhibit MTX-resistant L1210/R81 tumor cell growth was determined. The following applies: Mus musculus.

As a reminder, the IC50 is the midpoint of a concentration-inhibition curve. For the molecule `C=C(CC(NC(=O)c1ccc(N(C)Cc2cnc3nc(N)nc(N)c3n2)cc1)C(=O)O)C(=O)O` (stereo unspecified), the half-maximal inhibitory concentration (IC50) in assay [1] turned out to be 870 nM; in assay [2], 48 nM; in assay [3], 44 nM.
For the molecule `CN(Cc1cnc2nc(N)nc(N)c2n1)c1ccc(C(=O)NC(CC(C#N)C(=O)O)C(=O)O)cc1` (stereo unspecified), the half-maximal inhibitory concentration (IC50) in assay [1] amounted to 18 nM; in assay [3] it was 57 nM.
With `C=C(CC(NC(=O)c1ccc(NCc2cnc3nc(N)nc(N)c3n2)cc1)C(=O)O)C(=O)O` (stereo unspecified), the figures for the IC50 in assay [1], in assay [2] and in assay [3] were 29 nM, 20 nM and 88 nM, respectively.
On to `Nc1nc(N)c2nc(CNc3ccc(C(=O)N[C@@H](CCC(=O)O)C(=O)O)cc3)cnc2n1` [AMINOPTERIN], for which the half-maximal inhibitory concentration (IC50) in assay [2] came out at 7.1 nM.
With `CN(Cc1cnc2nc(N)nc(N)c2n1)c1ccc(C(=O)N[C@@H](CCC(=O)O)C(=O)O)cc1` [METHOTREXATE], the IC50 in assay [4] was determined as 200000 nM; in assay [2], 13 nM.
